Laboratory results from article PMC7987348, “Structural basis for human TRPC5 channel inhibition by two distinct inhibitors” (eLife, 2021).
Read-outs that look alike come from different tables or passages of the source.

Legend:
[1] = target: T1, hTRPC5 S495A (Homo sapiens, UniProt Q9UL62, S495A); assay: FLIPR calcium assay, hTRPC5 mutant S495A; type: cell-based
T1 construct: We use full-length nontagged hTRPC5 construct for FLIPR assay unless indicated otherwise; expressed in transfected cells; host or cells: AD293
T1 sequence (Q9UL62 1-973 S495A): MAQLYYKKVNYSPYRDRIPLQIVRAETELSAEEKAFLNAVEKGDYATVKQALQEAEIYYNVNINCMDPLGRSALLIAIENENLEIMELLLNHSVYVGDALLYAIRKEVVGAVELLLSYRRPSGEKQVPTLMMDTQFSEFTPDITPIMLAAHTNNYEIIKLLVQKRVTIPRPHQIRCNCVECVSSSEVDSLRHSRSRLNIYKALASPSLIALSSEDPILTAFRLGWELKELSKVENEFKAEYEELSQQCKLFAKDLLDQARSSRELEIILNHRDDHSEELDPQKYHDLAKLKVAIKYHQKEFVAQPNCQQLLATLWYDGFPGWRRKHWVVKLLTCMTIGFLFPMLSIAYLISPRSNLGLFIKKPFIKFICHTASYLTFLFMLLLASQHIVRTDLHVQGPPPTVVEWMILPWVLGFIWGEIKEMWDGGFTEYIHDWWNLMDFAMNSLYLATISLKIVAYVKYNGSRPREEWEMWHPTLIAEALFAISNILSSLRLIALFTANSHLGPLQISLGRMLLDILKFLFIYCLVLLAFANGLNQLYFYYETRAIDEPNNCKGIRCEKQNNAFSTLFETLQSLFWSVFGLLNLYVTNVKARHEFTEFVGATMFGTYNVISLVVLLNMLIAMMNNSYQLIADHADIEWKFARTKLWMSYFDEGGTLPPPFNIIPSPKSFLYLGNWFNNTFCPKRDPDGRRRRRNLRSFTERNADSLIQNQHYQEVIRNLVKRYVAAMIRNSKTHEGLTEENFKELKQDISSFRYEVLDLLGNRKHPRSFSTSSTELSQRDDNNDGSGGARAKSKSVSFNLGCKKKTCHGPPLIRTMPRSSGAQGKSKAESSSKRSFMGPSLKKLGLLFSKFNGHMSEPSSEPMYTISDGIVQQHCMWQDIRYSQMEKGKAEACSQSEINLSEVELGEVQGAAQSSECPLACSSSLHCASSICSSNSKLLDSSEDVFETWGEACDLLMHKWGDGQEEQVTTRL
Description: […]. Then the suspended cell culture was further diluted for 5.4- to 7-fold with culture medium and seeded onto black well, clear bottom, poly-D-lysine-coated 96-well plate (Costar) and cultured overnight. We use full-length nontagged hTRPC5 construct for FLIPR assay unless indicated otherwise. hTRPC5 plasmids were transfected into AD293 cells (60-80% confluence) with PEI. 30–40 hr post-transfection, culture medium was discarded and cells were incubated with 50 μl per well of 4 μM Rhod-2/AM (AAT Bioquest) in TARODES’s buffer (10 mM HEPES, 150 mM NaCl, 4 mM KCl, 2 mM MgCl2, 2 mM CaCl2, 11 mM glucose, pH 7.4) supplemented with 0.02% Pluronic F-127 (Sigma) for 5 min in dark at room temperature. Then dye was removed and replaced with 50 μl of TARODE’s buffer per well. The application of compounds and detection of intracellular calcium elevation were performed using FLIPR-TETRA (Molecular Devices) at room temperature (25–27°C). Fluorescence signals were read with excitation/emission at 510–545/565–625 nm.
[…]. Then fluorescence was measured for 300 s.
Buffer A contains 2× concentration of working concentration of inhibitor. […]. for control-Min, both buffer A and buffer B were replaced by TARODE’s buffer.
[…]; the average of fluorescence value of last 20 time points was considered as the ‘end fluorescence’. The value of ‘end fluorescence’ minus ‘start fluorescence’ was considered as ‘signal value’ for each well. […].
Three independent experiments were performed on different days (biological replicates), with each experiment containing three replicates (technique replicates).

[2] = system: TRPC3/6; parameters: method as in Richter et al., 2014; details: ref Richter et al., 2014; cited from earlier work
[3] = target: T2, hTRPC5_1-764 (Homo sapiens, UniProt Q9UL62); assay: FLIPR calcium assay, C-terminally truncated construct hTRPC5_1-764; details: 14 mM extracellular calcium; AD293 cells
T2 sequence (Q9UL62 1-764): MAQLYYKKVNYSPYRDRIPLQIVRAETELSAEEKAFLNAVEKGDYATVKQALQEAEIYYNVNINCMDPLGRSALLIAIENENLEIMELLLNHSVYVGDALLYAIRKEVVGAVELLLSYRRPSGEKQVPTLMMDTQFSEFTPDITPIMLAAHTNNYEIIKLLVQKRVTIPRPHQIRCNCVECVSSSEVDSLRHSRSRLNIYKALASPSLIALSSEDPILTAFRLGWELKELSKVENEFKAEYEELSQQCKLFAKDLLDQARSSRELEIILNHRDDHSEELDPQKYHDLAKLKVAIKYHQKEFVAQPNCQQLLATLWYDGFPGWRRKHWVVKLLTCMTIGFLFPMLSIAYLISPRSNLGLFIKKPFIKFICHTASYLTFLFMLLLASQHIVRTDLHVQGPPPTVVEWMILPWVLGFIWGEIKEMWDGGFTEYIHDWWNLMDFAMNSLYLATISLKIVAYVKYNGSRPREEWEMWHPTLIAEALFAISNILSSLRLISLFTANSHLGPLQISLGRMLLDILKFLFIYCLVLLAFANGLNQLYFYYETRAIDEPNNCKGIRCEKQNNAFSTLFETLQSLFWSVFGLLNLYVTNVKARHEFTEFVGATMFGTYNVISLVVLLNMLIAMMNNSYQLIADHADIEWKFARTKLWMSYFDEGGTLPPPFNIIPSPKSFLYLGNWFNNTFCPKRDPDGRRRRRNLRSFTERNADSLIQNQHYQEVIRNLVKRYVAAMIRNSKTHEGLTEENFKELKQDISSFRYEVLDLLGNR

Clc1ccc(Cn2c(CN3CCCC3)nc3ccccc32)cc1 [CMZ, clemizole]
Hill slope ([1]; CMZ): −1.21
IC50 ([1]; CMZ, 14 mM extracellular calcium, read-out: IC50): 3.03 µM
IC50 ([1]; CMZ, log of IC50 in μM, logIC50 ± SEM, n = 3, read-out: LogIC50 (converted)): 3.02 µM
remaining activity at 0.200195 µM ([1]; read-out: normalized RFU (% WT), Clemizole 0.200195 μM, 14 mM Ca2+, each column one independent experiment): 83%
remaining activity at 0.400391 µM ([1]; read-out: normalized RFU (% WT), Clemizole 0.400391 μM, 14 mM Ca2+, each column one independent experiment): 78.4%
remaining activity at 0.800781 µM ([1]; read-out: normalized RFU (% WT), Clemizole 0.800781 μM, 14 mM Ca2+, each column one independent experiment): 82%
remaining activity at 1.60156 µM ([1]; read-out: normalized RFU (% WT), Clemizole 1.60156 μM, 14 mM Ca2+, each column one independent experiment): 79.3%
remaining activity at 3.20312 µM ([1]; read-out: normalized RFU (% WT), Clemizole 3.20312 μM, 14 mM Ca2+, each column one independent experiment): 50.6%
remaining activity at 6.40625 µM ([1]; read-out: normalized RFU (% WT), Clemizole 6.40625 μM, 14 mM Ca2+, each column one independent experiment): 46.5%
remaining activity at 12.8125 µM ([1]; read-out: normalized RFU (% WT), Clemizole 12.8125 μM, 14 mM Ca2+, each column one independent experiment): 40.3%
fold more potent against TRPC5 than TRPC3/6 [2]: 10 fold
inhibition of hTRPC5_1-764 [3]: can be inhibited
